Source: patent US10669272B2, “Substituted naphthyridinone compounds useful as T cell activators” (BRISTOL-MYERS SQUIBB COMPANY, priority 2018, dated 2020)
Where two headings read alike, the source gives them in different places.

Legend:
Human venous whole blood = assay: Human whole blood IFN-γ assay; type: cell-based; details: human whole blood, normalized to 3 μM reference compound with anti-CD3 plus anti-CD28 as 100% activation, read-out: INFg Whole Blood Normalized Agonist EC50;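 also: blood from healthy donors exposed to compound for 1 h before stimulation with anti-CD3 and anti-CD28 at 1 µg/mL each, IFN-γ quantified in supernatant by AlphaLISA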
human DGKα = target: T1, human DGKα (Homo sapiens, UniProt P23743); assay: DGKα LIPGLO assay (extruded liposome substrate), in vitro DGK inhibition; type: biochemical; details: liposome (LIPGLO) assay; read-out: DGKa LIPGLO IC50
T1 construct: TVMV protease cleavage site (C); Hexa-His (C); made in house; host or cells: Sf9 insect cells (baculovirus, Bac-to-Bac)
T1 sequence (P23743 with tags, fused parts or gaps): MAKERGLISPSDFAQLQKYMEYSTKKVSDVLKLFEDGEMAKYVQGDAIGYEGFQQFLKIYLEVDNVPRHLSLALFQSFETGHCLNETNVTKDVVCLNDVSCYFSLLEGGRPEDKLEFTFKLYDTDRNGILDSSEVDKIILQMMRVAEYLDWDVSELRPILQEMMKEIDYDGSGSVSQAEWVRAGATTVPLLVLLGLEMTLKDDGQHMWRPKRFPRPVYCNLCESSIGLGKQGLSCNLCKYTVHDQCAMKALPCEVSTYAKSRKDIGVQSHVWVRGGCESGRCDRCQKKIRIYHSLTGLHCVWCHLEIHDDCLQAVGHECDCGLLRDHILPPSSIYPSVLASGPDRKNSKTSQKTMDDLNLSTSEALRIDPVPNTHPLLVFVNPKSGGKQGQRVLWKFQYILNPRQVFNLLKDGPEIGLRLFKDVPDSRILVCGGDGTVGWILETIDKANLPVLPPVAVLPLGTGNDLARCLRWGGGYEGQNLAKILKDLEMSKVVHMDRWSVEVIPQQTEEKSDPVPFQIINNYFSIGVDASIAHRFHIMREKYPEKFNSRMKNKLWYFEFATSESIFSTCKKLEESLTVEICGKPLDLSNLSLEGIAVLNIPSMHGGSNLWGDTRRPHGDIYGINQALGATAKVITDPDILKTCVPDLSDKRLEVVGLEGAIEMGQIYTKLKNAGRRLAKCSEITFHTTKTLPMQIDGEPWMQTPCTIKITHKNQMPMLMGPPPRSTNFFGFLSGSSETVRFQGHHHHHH

human DGKζ = target: T2, human DGKζ (Homo sapiens, UniProt Q13574); assay: DGKζ LIPGLO assay (extruded liposome substrate), in vitro DGK inhibition; type: biochemical; details: liposome (LIPGLO) assay; read-out: DGKz LIPGLO IC50
T2 construct: TVMV protease cleavage site (C); Hexa-His (C); made in house; host or cells: Sf9 insect cells (baculovirus, Bac-to-Bac)
T2 sequence (Q13574 with tags, fused parts or gaps isoform Q13574-4): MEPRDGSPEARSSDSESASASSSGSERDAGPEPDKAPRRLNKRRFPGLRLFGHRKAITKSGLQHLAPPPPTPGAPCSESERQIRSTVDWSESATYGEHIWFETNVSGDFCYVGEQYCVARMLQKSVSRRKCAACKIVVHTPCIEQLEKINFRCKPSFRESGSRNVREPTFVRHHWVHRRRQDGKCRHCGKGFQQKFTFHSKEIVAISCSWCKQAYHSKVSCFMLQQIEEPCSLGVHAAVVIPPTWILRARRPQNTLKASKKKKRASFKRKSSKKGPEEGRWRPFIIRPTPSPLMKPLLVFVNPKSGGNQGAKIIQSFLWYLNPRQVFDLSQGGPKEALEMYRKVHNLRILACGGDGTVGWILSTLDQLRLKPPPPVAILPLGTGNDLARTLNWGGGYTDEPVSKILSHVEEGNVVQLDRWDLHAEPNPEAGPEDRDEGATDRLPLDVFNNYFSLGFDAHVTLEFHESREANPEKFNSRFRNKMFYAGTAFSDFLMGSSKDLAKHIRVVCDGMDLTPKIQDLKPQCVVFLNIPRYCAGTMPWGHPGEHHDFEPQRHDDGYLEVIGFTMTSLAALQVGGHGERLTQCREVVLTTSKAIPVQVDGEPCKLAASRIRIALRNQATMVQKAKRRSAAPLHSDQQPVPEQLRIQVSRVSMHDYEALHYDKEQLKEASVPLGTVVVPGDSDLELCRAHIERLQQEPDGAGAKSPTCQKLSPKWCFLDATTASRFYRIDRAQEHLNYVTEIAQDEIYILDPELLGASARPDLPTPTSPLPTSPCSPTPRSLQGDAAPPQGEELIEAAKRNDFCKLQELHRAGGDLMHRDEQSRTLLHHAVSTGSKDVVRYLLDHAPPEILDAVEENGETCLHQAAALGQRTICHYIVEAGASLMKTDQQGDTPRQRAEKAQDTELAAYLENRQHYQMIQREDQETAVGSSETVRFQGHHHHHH

Row | SMILES | IC50 (human DGKα) | IC50 (human DGKζ) | EC50 (Human venous whole blood; Homo sapiens, 24 h) | EC50 (Human venous whole blood)
1 | C[C@@H]1CN(c2c(F)c(=O)n(C)c3ccc(C#N)nc23)[C@@H](C)CN1C(c1ccc(F)cc1)c1ccccc1F (stereo partly drawn) [Example 333, 7-fluoro-8-((2S,5R)-4-((2-fluorophenyl)(4-fluorophenyl)methyl)-2,5-dimethylpiperazin-1-yl)-5-methyl-6-oxo-5,6-dihydro-1,5-naphthyridine-2-carbonitrile] | 0.83 µM | 1.1 µM | 1.2 µM | 
2 | C[C@@H]1CN(c2c(F)c(=O)n(C)c3ccc(C#N)nc23)[C@@H](C)CN1C(c1ccc(F)cc1)c1ccccc1F (stereo partly drawn) [Example 334, 7-fluoro-8-((2S,5R)-4-((2-fluorophenyl)(4-fluorophenyl)methyl)-2,5-dimethylpiperazin-1-yl)-5-methyl-6-oxo-5,6-dihydro-1,5-naphthyridine-2-carbonitrile] | 0.5 µM | 0.56 µM |  | 1.9 µM
3 | COc1cc(OC(F)(F)F)ccc1CN1C[C@H](C)N(c2cc(=O)n(C)c3ccc(C#N)nc23)C[C@H]1C [Example 352, 8-((2S,5R)-4-(2-methoxy-4-(trifluoromethoxy)benzyl)-2,5-dimethylpiperazin-1-yl)-5-methyl-6-oxo-5,6-dihydro-1,5-naphthyridine-2-carbonitrile] | 0.52 µM | 1.7 µM | 0.79 µM | 
4 | Cc1ccc(C(c2ccc(C)c(Cl)c2)N2C[C@H](C)N(c3cc(=O)n(C)c4ccc(C#N)nc34)C[C@H]2C)nc1 (stereo partly drawn) [Example 399, 8-((2S,5R)-4-((3-chloro-4-methylphenyl)(5-methylpyridin-2-yl)methyl)-2,5-dimethylpiperazin-1-yl)-5-methyl-6-oxo-5,6-dihydro-1,5-naphthyridine-2-carbonitrile] | 2.3 µM | 0.69 µM |  | 0.57 µM
5 | C[C@@H]1CN(c2cc(=O)n(C)c3ccc(C#N)nc23)[C@@H](C)CN1C(c1ccc(F)cn1)c1ccc(F)cn1 [Example 407, 8-((2S,5R)-4-(bis(5-fluoropyridin-2-yl)methyl)-2,5-dimethylpiperazin-1-yl)-5-methyl-6-oxo-5,6-dihydro-1,5-naphthyridine-2-carbonitrile] | 0.029 µM | 1 µM | 20 µM | 
6 | Cc1ccc(C(c2cccc(F)c2)N2C[C@H](C)N(c3cc(=O)n(C)c4ccc(C#N)nc34)C[C@H]2C)cn1 (stereo partly drawn) [Example 417, 8-((2S,5R)-4-((3-fluorophenyl)(6-methylpyridin-3-yl)methyl)-2,5-dimethylpiperazin-1-yl)-5-methyl-6-oxo-5,6-dihydro-1,5-naphthyridine-2-carbonitrile] | 20 µM | 11 µM |  | 7.7 µM
7 | CC[C@@H]1CN(c2cc(=O)n(C)c3ccc(C#N)nc23)[C@@H](C)CN1C(c1ccc(F)cc1)c1ccnc(C)n1 (stereo partly drawn) [Example 419, 8-((2S,5R)-5-ethyl-4-((4-fluorophenyl)(2-methylpyrimidin-4-yl)methyl)-2-methylpiperazin-1-yl)-5-methyl-6-oxo-5,6-dihydro-1,5-naphthyridine-2-carbonitrile] | 0.95 µM | 0.34 µM |  | 0.96 µM
8 | CC(c1ccc(OC(F)(F)F)cc1F)N1C[C@H](C)N(c2cc(=O)n(C)c3ccc(C#N)nc23)C[C@H]1C (stereo partly drawn) [Example 437, 8-((2S,5R)-4-(1-(2-fluoro-4-(trifluoromethoxy)phenyl)ethyl)-2,5-dimethylpiperazin-1-yl)-5-methyl-6-oxo-5,6-dihydro-1,5-naphthyridine-2-carbonitrile] | 0.4 µM | 0.67 µM | 0.54 µM | 
9 | C[C@@H]1CN(c2cc(=O)n(C)c3ccc(C#N)nc23)[C@@H](C)CN1Cc1cccc2c1cnn2C [Example 475, 8-((2S,5R)-2,5-dimethyl-4-((1-methyl-1H-indazol-4-yl)methyl)piperazin-1-yl)-5-methyl-6-oxo-5,6-dihydro-1,5-naphthyridine-2-carbonitrile] | 16 µM | 2 µM | 20 µM | 
10 | C[C@@H]1CN(c2cc(=O)n(C)c3ccc(C#N)nc23)[C@@H](C)CN1Cc1ccc(OC(F)(F)F)cc1C#N [Example 581] | 1.3 µM | 6.7 µM | 2.7 µM | 
11 | C[C@@H]1CN(c2cc(=O)n(C)c3ccc(C#N)nc23)[C@@H](C)CN1Cc1ccc(OC(F)(F)F)c(C#N)c1 [Example 584] | 5.9 µM | 7.9 µM | 3.4 µM | 
12 | C[C@@H]1CN(c2cc(=O)n(C)c3ccc(C#N)nc23)[C@@H](C)CN1Cc1cccc(OC(F)(F)F)c1 [Example 586] | 7.3 µM | 5.6 µM | 2.3 µM | 
13 | C[C@@H]1CN(c2cc(=O)n(C)c3ccc(C#N)nc23)[C@@H](C)CN1Cc1ccc(OC(F)(F)F)cc1Br [Example 593] | 3.1 µM | 5.9 µM | 1.2 µM | 
14 | CCn1cc(F)c2c(CN3C[C@H](C)N(c4cc(=O)n(C)c5ccc(C#N)nc45)C[C@H]3C)cccc21 [Example 596] | 8.9 µM | 0.58 µM | 15 µM | 
15 | COc1ccc(OC(F)(F)F)cc1CN1C[C@H](C)N(c2cc(=O)n(C)c3ccc(C#N)nc23)C[C@H]1C [Example 601] | 2.1 µM | 7.7 µM | 3.3 µM | 
16 | C[C@@H]1CN(c2cc(=O)n(C)c3ccc(C#N)nc23)[C@@H](C)CN1Cc1cccc2c1ccn2C [Example 606] | 5.2 µM | 0.066 µM | 1.1 µM | 
17 | C[C@@H]1CN(c2cc(=O)n(C)c3ccc(C#N)nc23)[C@@H](C)CN1Cc1ccc(OC(F)(F)F)cc1Cl [Example 607] | 1.9 µM | 7.6 µM | 2 µM | 

Now from value to molecule, other results behind:

Row | IC50 (human DGKα) | IC50 (human DGKζ) | SMILES | EC50 (Human venous whole blood; Homo sapiens, 24 h) | EC50 (Human venous whole blood)
18 | 1.2 µM | 2.5 µM | Cc1ccc(C(c2ccc(F)cc2)N2C[C@H](C)N(c3c(F)c(=O)n(C)c4ccc(C#N)nc34)C[C@H]2C)cc1 (stereo partly drawn) [Example 335, 7-fluoro-8-((2S,5R)-4-((4-fluorophenyl)(p-tolyl)methyl)-2,5-dimethylpiperazin-1-yl)-5-methyl-6-oxo-5,6-dihydro-1,5-naphthyridine-2-carbonitrile] |  | 1.2 µM
19 | 1.1 µM | 1.4 µM | Cc1ccc(C(c2cccc(Cl)c2)N2C[C@H](C)N(c3cc(=O)n(C)c4ccc(C#N)nc34)C[C@H]2C)nc1 (stereo partly drawn) [Example 398, 8-((2S,5R)-4-((3-chlorophenyl)(5-methylpyridin-2-yl)methyl)-2,5-dimethylpiperazin-1-yl)-5-methyl-6-oxo-5,6-dihydro-1,5-naphthyridine-2-carbonitrile] | 0.41 µM | 
20 | 7.3 µM | 1.1 µM | CC(c1ccc(C(F)(F)F)cc1F)N1C[C@H](C)N(c2cc(=O)n(C)c3ccc(C#N)nc23)C[C@H]1C (stereo partly drawn) [Example 431, 8-((2S,5R)-4-(1-(2-fluoro-4-(trifluoromethyl)phenyl)ethyl)-2,5-dimethylpiperazin-1-yl)-5-methyl-6-oxo-5,6-dihydro-1,5-naphthyridine-2-carbonitrile] | 1.6 µM | 
21 | 0.32 µM | 0.81 µM | CCC(c1ccc(OC(F)(F)F)cc1F)N1C[C@H](C)N(c2cc(=O)n(C)c3ccc(C#N)nc23)C[C@H]1C (stereo partly drawn) [Example 438, 8-((2S,5R)-4-(1-(2-fluoro-4-(trifluoromethoxy)phenyl)propyl)-2,5-dimethylpiperazin-1-yl)-5-methyl-6-oxo-5,6-dihydro-1,5-naphthyridine-2-carbonitrile] | 0.74 µM | 
22 | 1.7 µM | 2.1 µM | C[C@@H]1CN(c2cc(=O)n(C)c3ccc(C#N)nc23)[C@@H](C)CN1C(c1ccc(Cl)cc1)c1cc(F)ccn1 (stereo partly drawn) [Example 446, 8-((2S,5R)-4-((4-chlorophenyl)(4-fluoropyridin-2-yl)methyl)-2,5-dimethylpiperazin-1-yl)-5-methyl-6-oxo-5,6-dihydro-1,5-naphthyridine-2-carbonitrile] | 1.1 µM | 
23 | 0.31 µM | 1 µM | Cc1ccc(C(c2ccc(C#N)cc2)N2C[C@H](C)N(c3cc(=O)n(C)c4ccc(C#N)nc34)C[C@H]2C)nc1 (stereo partly drawn) [Example 453, 8-((2S,5R)-4-((4-cyanophenyl)(5-methylpyridin-2-yl)methyl)-2,5-dimethylpiperazin-1-yl)-5-methyl-6-oxo-5,6-dihydro-1,5-naphthyridine-2-carbonitrile] |  | 2.8 µM
24 | 1.3 µM | 2.9 µM | C[C@@H]1CN(c2cc(=O)n(C)c3ccc(C#N)nc23)[C@@H](C)CN1C(c1ccc(F)cc1)c1cc(F)ccn1 (stereo partly drawn) [Example 472, 8-((2S,5R)-4-((4-fluorophenyl)(4-fluoropyridin-2-yl)methyl)-2,5-dimethylpiperazin-1-yl)-5-methyl-6-oxo-5,6-dihydro-1,5-naphthyridine-2-carbonitrile] | 1.3 µM | 
25 | 2.8 µM | 18 µM | C[C@@H]1CN(c2cc(=O)n(C)c3ccc(C#N)nc23)[C@@H](C)CN1Cc1ccc(C2(C#N)CC2)cc1 [Example 567] | 20 µM | 
26 | 9.3 µM | 1.5 µM | C[C@@H]1CN(c2cc(=O)n(C)c3ccc(C#N)nc23)[C@@H](C)CN1Cc1ccc(F)c(OC(F)(F)F)c1 [Example 585] | 2.1 µM | 
27 | 4.6 µM | 6.6 µM | C[C@@H]1CN(c2cc(=O)n(C)c3ccc(C#N)nc23)[C@@H](C)CN1Cc1ccc(C(C)(C)C)cc1 [Example 587] | 2.3 µM | 
28 | 0.33 µM | 5.1 µM | C[C@@H]1CN(c2cc(=O)n(C)c3ccc(C#N)nc23)[C@@H](C)CN1Cc1ccc(OC(F)F)cc1F [Example 590] | 1.9 µM | 
29 | 0.85 µM | 3.7 µM | CC(C)c1ccc(CN2C[C@H](C)N(c3cc(=O)n(C)c4ccc(C#N)nc34)C[C@H]2C)cc1 [Example 602] | 1.1 µM | 
30 | 0.31 µM | 2 µM | C[C@@H]1CN(c2cc(=O)n(C)c3ccc(C#N)nc23)[C@@H](C)CN1Cc1ccc(Cl)cc1 [Example 604] | 4.8 µM | 
